From patent US6297043A, “Mumbaistatin, a process for it's production and its use as a pharmaceutical” (Aventis Pharma Deutschland GmbH, priority 1998, dated 2001)

Experiments:
[1] = target: T1, rat liver microsomal glucose-6-phosphate translocase (Rattus norvegicus, UniProt F7EWB7); test: inhibition of rat liver microsomal glucose-6-phosphate translocase activity; type: biochemical
T1 construct: rat liver microsomal glucose-6-phosphate translocase; from tissue; host or cells: rat liver microsomes
T1 sequence (F7EWB7 1-429): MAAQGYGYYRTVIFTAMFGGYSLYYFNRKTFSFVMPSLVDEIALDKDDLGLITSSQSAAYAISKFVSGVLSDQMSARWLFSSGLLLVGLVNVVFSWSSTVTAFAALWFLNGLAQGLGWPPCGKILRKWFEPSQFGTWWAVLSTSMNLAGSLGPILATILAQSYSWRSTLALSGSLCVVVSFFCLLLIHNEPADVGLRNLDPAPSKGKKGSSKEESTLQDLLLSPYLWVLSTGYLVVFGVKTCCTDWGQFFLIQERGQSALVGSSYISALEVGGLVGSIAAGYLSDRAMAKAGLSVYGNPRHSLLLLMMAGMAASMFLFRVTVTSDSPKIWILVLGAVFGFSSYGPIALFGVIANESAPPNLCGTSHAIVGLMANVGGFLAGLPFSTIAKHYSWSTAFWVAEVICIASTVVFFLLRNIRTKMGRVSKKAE
Source text: (§1) If desired, DESMOPHEN® (polypropylene oxide) may be used as an antifoam agent in the fermenters. […] In the resulting culture broth, Mumbaistatin is present primarily in the culture filtrate and can thus be recovered by extraction of the culture filtrate with a water immiscible solvent such as, for example, ethyl acetate, dichloromethane, chloroform or butanol at pH 5-8, or by hydrophobic interaction chromatography using polymeric resins such as DIAION® HP-20 (Mitsubishi Chemical Industries Limited, Japan), AMBERLITE® XAD (Rohm and Haas Industries, U.S.A.), or activated charcoal, or by ion exchange chromatography at pH 5-8.
(§2) The production of Mumbaistatin was monitored by measuring the inhibition of glucose-6-phosphate translocase.
(§3) The production of the compound was monitored by measuring the inhibition of glucose-6-phosphate translocase.

[2] = system: rat liver microsomal glucose-6-phosphate translocase; test: as above; type: biochemical; conditions: translocase versus phosphatase activity
Source text: as §1, §2, §3

[3] = system: phosphate/pyrophosphate translocase; test: effect on activity of phosphate/pyrophosphate translocase; type: biochemical
[4] = system: fructose-induced gluconeogenesis; test: glucose output of isolated rat hepatocytes: fructose-induced gluconeogenesis; type: cell-based
Method: (§4) Mumbaistatin was further evaluated in isolated rat hepatocytes for its effect on glucose output. It inhibits both fructose-induced gluconeogenesis and glucagon-induced glycogenolysis with IC50 values of about 0.3 μM and 0.6 μM, respectively.

[5] = system: glucagon-induced glycogenolysis; test: glucose output of isolated rat hepatocytes: glucagon-induced glycogenolysis; type: cell-based
Method: as §4

Substance: Mumbaistatin
- mode of inhibition of glucose-6-phosphate translocase [1]: reversible and competitive inhibitor
- IC50 ([1]; rat liver microsomal): ~25 nM
- inhibition of glucose-6-phosphate translocase ([1]; rat liver microsomal): potently inhibits
- specificity for translocase over phosphatase [2]: high degree of specificity for translocase
- effect on activity of phosphate/pyrophosphate translocase [3]: did not affect
- IC50 [4]: ~300 nM
- IC50 [5]: ~600 nM
